According to US10913742B2, “Oxadiazolones as transient receptor potential channel inhibitors” (Genentech, Inc., priority 2017, dated 2021):

Target: human TRPA1 (Homo sapiens (Human), UniProt O75762)
Assay: hTRPA1 CHO Ca2+ FLIPR assay (block of cinnamaldehyde induced calcium influx)
Assay type: cell-based
Conditions: CHO cells expressing TRPA1; 75 uM cinnamaldehyde; Hill coefficient fixed to 1.5; read-out: hTRPA1 (hTRPA1 CHO Ca2+ MAX EVO (IC50))
Description: CHO cells expressing TRPA1 were plated into 384-well plates, incubated overnight at 37° C., and loaded with BD calcium indicator dye for 1 hr at 37° C. followed by 15 minutes at room temperature. The assay buffer was Hank's Balanced Salt Solution (HBSS) containing 20 mM HEPES (pH readjusted to 7.4) along with 0.02% BSA.
Following dye load and plate cool down, compounds were added to the cells using FLIPR Tetra. Plates were then incubated with compounds for 20 minutes at room temperature prior to adding agonist.
The IC50 results were fit with a standard Hill function, keeping the Hill coefficient (n) fixed to 1.5. Fixing the Hill coefficient will generally reduce variability of the IC50 determination. The IC50 results were individually examined to make sure the MIN and MAX points were set correctly prior to validation of the results.

Sequence of human TRPA1 (O75762 whole entry): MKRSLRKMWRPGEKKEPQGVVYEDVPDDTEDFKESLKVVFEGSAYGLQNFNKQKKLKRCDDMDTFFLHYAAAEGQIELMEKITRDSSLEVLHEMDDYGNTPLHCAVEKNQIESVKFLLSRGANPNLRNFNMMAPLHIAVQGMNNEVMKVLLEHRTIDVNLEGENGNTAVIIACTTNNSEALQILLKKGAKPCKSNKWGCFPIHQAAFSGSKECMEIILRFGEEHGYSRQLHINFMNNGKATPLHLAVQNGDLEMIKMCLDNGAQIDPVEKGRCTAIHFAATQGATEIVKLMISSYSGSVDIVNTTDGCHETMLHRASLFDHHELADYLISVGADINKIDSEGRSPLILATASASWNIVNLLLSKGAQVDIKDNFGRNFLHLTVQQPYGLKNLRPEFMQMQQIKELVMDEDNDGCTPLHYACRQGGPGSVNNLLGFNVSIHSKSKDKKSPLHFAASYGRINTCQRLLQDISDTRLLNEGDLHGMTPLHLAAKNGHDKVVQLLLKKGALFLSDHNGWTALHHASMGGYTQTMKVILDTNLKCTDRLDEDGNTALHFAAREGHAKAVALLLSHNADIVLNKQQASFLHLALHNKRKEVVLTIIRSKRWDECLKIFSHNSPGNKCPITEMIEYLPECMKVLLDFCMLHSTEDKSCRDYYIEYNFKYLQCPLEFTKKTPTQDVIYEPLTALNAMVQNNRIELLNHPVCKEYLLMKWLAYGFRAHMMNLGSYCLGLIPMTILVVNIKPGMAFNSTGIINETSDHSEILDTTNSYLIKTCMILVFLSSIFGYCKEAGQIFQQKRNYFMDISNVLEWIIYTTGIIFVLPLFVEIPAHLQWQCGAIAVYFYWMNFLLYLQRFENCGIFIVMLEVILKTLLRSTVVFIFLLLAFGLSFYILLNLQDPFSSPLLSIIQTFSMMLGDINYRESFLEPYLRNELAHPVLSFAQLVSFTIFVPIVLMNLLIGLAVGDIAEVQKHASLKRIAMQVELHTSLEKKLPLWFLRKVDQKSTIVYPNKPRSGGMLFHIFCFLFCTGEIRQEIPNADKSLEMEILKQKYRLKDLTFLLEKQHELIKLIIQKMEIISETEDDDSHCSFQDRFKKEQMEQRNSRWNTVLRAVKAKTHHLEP

Row | IC50 [nM] | SMILES
1 | 12.5 | Cc1ccnc2ncn(Cc3nn([C@H]4C[C@H](c5ccc6ncccc6c5)C4)c(=O)o3)c(=O)c12 [compound 66, 5-[(5-methyl-4-oxo-pyrido[2,3-d]pyrimidin-3-yl)methyl]-3-[3-(6-quinolyl)cyclobutyl]-1,3,4-oxadiazol-2-one]
2 | 17.7 | Cn1cnc2ncn(Cc3nn([C@H]4C[C@H](Oc5cccc(Cl)c5)C4)c(=O)o3)c(=O)c21 [compound 70, trans-3-[3-(3-chlorophenoxy)cyclobutyl]-5-[(7-methyl-6-oxo-purin-1-yl)methyl]-1,3,4-oxadiazol-2-one]
3 | 5.88 | O=c1c2c(Cl)ccnc2ncn1Cc1nn([C@H]2C[C@H](c3ccc(Cl)cc3)C2)c(=O)o1 [compound 73, 5-[(5-chloro-4-oxo-pyrido[2,3-d]pyrimidin-3-yl)methyl]-3-[3-(4-chlorophenyl)cyclobutyl]-1,3,4-oxadiazol-2-one]
4 | 77.5 | Cn1cnc2ncn(Cc3nn(CCCOc4cccc(F)c4)c(=O)o3)c(=O)c21 [compound 74, 3-[3-(3-fluorophenoxy)propyl]-5-[(7-methyl-6-oxo-purin-1-yl)methyl]-1,3,4-oxadiazol-2-one]
5 | 40.5 | Cc1ccnc2ncn(Cc3nn([C@H]4C[C@](F)(c5cccc(F)c5)C4)c(=O)o3)c(=O)c12 [compound 75, 3-[3-fluoro-3-(3-fluorophenyl)cyclobutyl]-5-[(5-methyl-4-oxo-pyrido[2,3-d]pyrimidin-3-yl)methyl]-1,3,4-oxadiazol-2-one]
6 | 21.4 | Cc1ccnc2ncn(Cc3nn([C@H]4C[C@](F)(c5ccc(C#N)cc5)C4)c(=O)o3)c(=O)c12 [compound 77, 4-[1-fluoro-3-[5-[(5-methyl-4-oxo-pyrido[2,3-d]pyrimidin-3-yl)methyl]-2-oxo-1,3,4-oxadiazol-3-yl]cyclobutyl] benzonitrile]
7 | 2.58 | Cc1ccnc2ncn(Cc3nn([C@H]4C[C@H](c5ccc(C#N)cc5)C4)c(=O)o3)c(=O)c12 [compound 79, 4-[3-[5-[(5-methyl-4-oxo-pyrido[2,3-d]pyrimidin-3-yl)methyl]-2-oxo-1,3,4-oxadiazol-3-yl]cyclobutyl]benzonitrile]
8 | 6.34 | Cc1ccnc2ncn(Cc3nn(CCCOc4cccc(Cl)c4)c(=O)o3)c(=O)c12 [compound 85, 3-(3-(3-chlorophenoxy)propyl)-5-((5-methyl-4-oxopyrido[2,3-d]pyrimidin-3(4H)-yl)methyl)-1,3,4-oxadiazol-2(3H)-one]
9 | 22.6 | Cn1cnc2ncn(Cc3nn(CCCOc4cccc(Cl)c4)c(=O)o3)c(=O)c21 [compound 86, 1-([4-[3-(3-chlorophenoxy)propyl]-5-oxo-4,5-dihydro-1,3,4-oxadiazol-2-yl]methyl)-7-methyl-6,7-dihydro-1H-purin-6-one]
10 | 5.76 | Cc1ccnc2ncn(Cc3nn([C@H]4C[C@H](c5ccc(F)cc5)C4)c(=O)o3)c(=O)c12 [compound 88, 3-[3-(4-fluorophenyl)cyclobutyl]-5-[(5-methyl-4-oxo-pyrido[2,3-d]pyrimidin-3-yl)methyl]-1,3,4-oxadiazol-2-one]
11 | 18 | Cc1ccnc2ncn(Cc3nn([C@H]4C[C@](F)(c5ccc(F)cc5)C4)c(=O)o3)c(=O)c12 [compound 96, 3-[3-fluoro-3-(4-fluorophenyl)cyclobutyl]-5-[(5-methyl-4-oxo-pyrido[2,3-d]pyrimidin-3-yl)methyl]-1,3,4-oxadiazol-2-one]
12 | 57.3 | Cc1ccnc2ncn(Cc3nn([C@H]4C[C@@](F)(c5ccc(C(F)(F)F)cc5)C4)c(=O)o3)c(=O)c12 [compound 99, 3-[3-fluoro-3-[4-(trifluoromethyl)phenyl]cyclobutyl]-5-[(5-methyl-4-oxo-pyrido[2,3-d]pyrimidin-3 yl)methyl]-1,3,4-oxadiazol-2-one]

The next lines start with the molecule.

Row | SMILES | IC50 [nM]
13 | Cn1cc(C#N)c2ncn(Cc3nn(CCc4ccc(Cl)cc4)c(=O)o3)c(=O)c21 [compound 56, 3-((4-(4-chlorophenethyl)-5-oxo-4,5-dihydro-1,3,4-oxadiazol-2-yl)methyl)-5-methyl-4-oxo-4,5-dihydro-3H-pyrrolo[3,2-d]pyrimidine-7-carbonitrile] | 168
14 | Cc1ccc(=O)n2ccn(Cc3nn([C@H]4C[C@H](c5ccc(Cl)cc5)C4)c(=O)o3)c(=O)c12 [compound 58, 2-[[4-[3-(4-chlorophenyl)cyclobutyl]-5-oxo-1,3,4-oxadiazol-2-yl]methyl]-9-methyl-pyrido[1,2-a]pyrazine-1,6-dione] | 40.3
15 | Cc1cc(C#N)nc2ncn(Cc3nn([C@H]4C[C@](F)(c5ccc(F)cc5)C4)c(=O)o3)c(=O)c12 [compound 61, 3-[[4-[3-fluoro-3-(4-fluorophenyl)cyclobutyl]-5-oxo-1,3,4-oxadiazol-2-yl]methyl]-5-methyl-4-oxo-pyrido[2,3-d]pyrimidine-7-carbonitrile] | 11.2
16 | Cn1cnc2ncn(Cc3nn([C@H]4C[C@H](Oc5cccc(C#N)c5)C4)c(=O)o3)c(=O)c21 [compound 62, 3-[3-[5-[(7-methyl-6-oxo-purin-1-yl)methyl]-2-oxo-1,3,4-oxadiazol-3-yl]cyclobutoxy]benzonitrile] | 45.5
17 | Cn1cnc2ncn(Cc3nn([C@H]4C[C@H](Oc5cccc(F)c5)C4)c(=O)o3)c(=O)c21 [compound 63, trans-3-[3-(3-fluorophenoxy)cyclobutyl]-5-[(7-methyl-6-oxo-purin-1-yl)methyl]-1,3,4-oxadiazol-2-one] | 11.5
18 | Cn1nnc2ncn(Cc3nn([C@H]4C[C@H](c5ccc(Cl)cc5)C4)c(=O)o3)c(=O)c21 [compound 64, trans-3-[3-(4-chlorophenyl)cyclobutyl]-5-[(1-methyl-7-oxo-triazolo[4,5-d]pyrimidin-6-yl)methyl]-1,3,4-oxadiazol-2-one] | 76.9
19 | O=c1c2cccc(=O)n2ccn1Cc1nn([C@H]2C[C@H](c3ccc(Cl)cc3)C2)c(=O)o1 [compound 65, trans-2-[[4-[3-(4-chlorophenyl)cyclobutyl]-5-oxo-1,3,4-oxadiazol-2-yl]methyl]pyrido[1,2-a]pyrazine-1,6-dione] | 21.1
20 | Cn1cnc2ncn(Cc3nn([C@H]4C[C@H](Oc5ccc(Cl)cc5)C4)c(=O)o3)c(=O)c21 [compound 69, 3-[3-(4-chlorophenoxy)cyclobutyl]-5-[(7-methyl-6-oxo-purin-1-yl)methyl]-1,3,4-oxadiazol-2-one] | 785
21 | Cn1cnc2ncn(Cc3nn([C@H]4C[C@H](c5ccc(C#N)cc5)C4)c(=O)o3)c(=O)c21 [compound 71, 4-[3-[5-[(7-methyl-6-oxo-purin-1-yl)methyl]-2-oxo-1,3,4-oxadiazol-3-yl]cyclobutyl]benzonitrile] | 59.7
22 | Cn1c(=O)ccc2ncn(Cc3nn([C@H]4C[C@H](c5ccc(Cl)cc5)C4)c(=O)o3)c(=O)c21 [compound 83, 3-((4-((trans)-3-(4-chlorophenyl)cyclobutyl)-5-oxo-4,5-dihydro-1,3,4-oxadiazol-2-yl)methyl)-5-methylpyrido[3,2-d]pyrimidine-4,6(3H,5H)-dione] | 15.2
23 | Cn1cnc2cnn(Cc3nn([C@H]4C[C@H](c5ccc(Cl)cc5)C4)c(=O)o3)c(=O)c21 [compound 89, 3-[3-(4-chlorophenyl)cyclobutyl]-5-[(3-methyl-4-oxo-imidazo[4,5-d]pyridazin-5-yl)methyl]-1,3,4-oxadiazol-2-one] | 45.7
24 | O=c1c2cccnc2cnn1Cc1nn([C@H]2C[C@H](c3ccc(Cl)cc3)C2)c(=O)o1 [compound 90, 3-[3-(4-chlorophenyl)cyclobutyl]-5-[(5-oxopyrido[2,3-d]pyridazin-6-yl)methyl]-1,3,4-oxadiazol-2-one] | 79.9
25 | Cc1noc2ncn(Cc3nn([C@H]4C[C@H](c5ccc(Cl)cc5)C4)c(=O)o3)c(=O)c12 [compound 91, 5-[[4-[3-(4-chlorophenyl)cyclobutyl]-5-oxo-1,3,4-oxadiazol-2-yl]methyl]-3-methyl-isoxazolo[5,4-d]pyrimidin-4-one] | 36.2
26 | Cn1cnc2ncn(Cc3nn([C@@H]4CC[C@@H](c5ccc(F)cc5)C4)c(=O)o3)c(=O)c21 [compound 92, 5-[(7-methyl-6-oxo-purin-1-yl)methyl]-3-[(1R,3R)-3-(4-fluorophenyl)cyclopentyl]-1,3,4-oxadiazol-2-one] | 8.26
27 | Cc1cc(C#N)nc2ncn(Cc3nn([C@H]4C[C@H](c5ccc(Cl)cc5)C4)c(=O)o3)c(=O)c12 [compound 93, trans-3-[[4-[3-(4-chlorophenyl)cyclobutyl]-5-oxo-1,3,4-oxadiazol-2-yl]methyl]-5-methyl-4-oxo-pyrido[2,3-d]pyrimidine-7-carbonitrile] | 4.84
28 | O=c1c2cccnc2ncn1Cc1nn([C@H]2C[C@](F)(c3ccc(Cl)cc3)C2)c(=O)o1 [compound 94, trans-3-[3-(4-chlorophenyl)-3-fluoro-cyclobutyl]-5-[(4-oxopyrido[2,3-d]pyrimidin-3-yl)methyl]-1,3,4-oxadiazol-2-one] | 16.8
29 | Cn1cnc2ncn(Cc3nn([C@H]4C[C@](F)(c5ccc(F)cc5)C4)c(=O)o3)c(=O)c21 [compound 97, 3-[3-fluoro-3-(4-fluorophenyl)cyclobutyl]-5-[(7-methyl-6-oxo-purin-1-yl)methyl]-1,3,4-oxadiazol-2-one] | 80.2
30 | O=c1c2cccnc2ncn1Cc1nn([C@H]2C[C@H](c3ccc(Cl)cc3)C2)c(=O)o1 [compound 98, trans-3-[3-(4-chlorophenyl)cyclobutyl]-5-[(4-oxopyrido[2,3-d]pyrimidin-3-yl)methyl]-1,3,4-oxadiazol-2-one] | 16.2
